# Read-outs that look alike come from different tables or passages of the source.
# Columns and labels:
# [1] = the molecule shown is the open-chain precursor, resin
# [2] = On-resin ring-closing olefin metathesis (all-hydrocarbon stapling, S5/S5 i,i+4 or R8/S5 i,i+7), first-generation Grubbs catalyst (3 equiv); then Fmoc removal, TFA cleavage, RP-HPLC; conditions: the molecule shown is the open-chain precursor, 25.0 °C, 4.0 h
# [3] = 33-membered ring, 1,2-dichloroethane (dry)
structure (smiles),measurement,setting,value
C=CCCCCCC[C@@](C)(NC(=O)[C@H](Cc1ccccc1)NC(=O)[C@H](CCCNC(=N)NS(=O)(=O)c1c(C)c(C)c2c(c1C)CC(C)(C)O2)NC(=O)[C@H](CCCCNC(=O)OC(C)(C)C)NC(=O)[C@@H](NC(=O)OCC1c2ccccc2-c2ccccc21)C(C)C)C(=O)N[C@@H](CCCCNC(=O)OC(C)(C)C)C(=O)N[C@@H](Cc1ccccc1)C(=O)N[C@@H](Cc1ccccc1)C(=O)N[C@@H](CCCNC(=N)NS(=O)(=O)c1c(C)c(C)c2c(c1C)CC(C)(C)O2)C(=O)N[C@@H](CCCCNC(=O)OC(C)(C)C)C(=O)N[C@@H](CC(C)C)C(=O)N[C@@](C)(CCCC=C)C(=O)N[C@@H](CCCCNC(=O)OC(C)(C)C)C(=O)N[C@@H](CC(C)C)C(=O)N[C@H](C(N)=O)C(C)C,"ring closure, overall yield",[1]; 33-membered ring,65%
C=CCCC[C@](C)(NC(=O)[C@H](CCCCNC(=O)OC(C)(C)C)NC(=O)[C@H](Cc1ccccc1)NC(=O)[C@H](CCCNC(=N)NS(=O)(=O)c1c(C)c(C)c2c(c1C)CC(C)(C)O2)NC(=O)[C@](C)(CCCC=C)NC(=O)[C@@H](NC(=O)OCC1c2ccccc2-c2ccccc21)C(C)C)C(=O)N[C@@H](Cc1ccccc1)C(=O)N[C@@H](Cc1ccccc1)C(=O)N[C@@H](CCCNC(=N)NS(=O)(=O)c1c(C)c(C)c2c(c1C)CC(C)(C)O2)C(=O)N[C@@H](CCCCNC(=O)OC(C)(C)C)C(=O)N[C@@H](CC(C)C)C(=O)N[C@@H](CCCCNC(=O)OC(C)(C)C)C(=O)N[C@@H](CCCCNC(=O)OC(C)(C)C)C(=O)N[C@@H](CC(C)C)C(=O)N[C@H](C(N)=O)C(C)C,"ring closure, overall yield",[1]; 21-membered ring,65%
C=CCCC[C@](C)(NC(=O)[C@H](Cc1ccccc1)NC(=O)[C@H](Cc1ccccc1)NC(=O)[C@H](CCCCNC(=O)OC(C)(C)C)NC(=O)[C@H](CCCCNC(=O)OC(C)(C)C)NC(=O)[C@H](Cc1ccccc1)NC(=O)[C@H](CCCNC(=N)NS(=O)(=O)c1c(C)c(C)c2c(c1C)CC(C)(C)O2)NC(=O)[C@H](CCCCNC(=O)OC(C)(C)C)NC(=O)[C@@H](NC(=O)OCC1c2ccccc2-c2ccccc21)C(C)C)C(=O)N[C@@H](CCCCNC(=O)OC(C)(C)C)C(=O)N[C@@H](CC(C)C)C(=O)N[C@@H](CCCCNC(=O)OC(C)(C)C)C(=O)N[C@@](C)(CCCC=C)C(=O)N[C@@H](CC(C)C)C(=O)N[C@H](C(N)=O)C(C)C,"ring closure, overall yield","[2]; 21-membered ring, 1,2-dichloroethane (dry)",68%
C=CCCCCCC[C@@](C)(NC(=O)[C@H](CCCCNC(=O)OC(C)(C)C)NC(=O)[C@H](Cc1ccccc1)NC(=O)[C@H](CCCNC(=N)NS(=O)(=O)c1c(C)c(C)c2c(c1C)CC(C)(C)O2)NC(=O)[C@H](CCCCNC(=O)OC(C)(C)C)NC(=O)[C@@H](NC(=O)OCC1c2ccccc2-c2ccccc21)C(C)C)C(=O)N[C@@H](Cc1ccccc1)C(=O)N[C@@H](Cc1ccccc1)C(=O)N[C@@H](CCCNC(=N)NS(=O)(=O)c1c(C)c(C)c2c(c1C)CC(C)(C)O2)C(=O)N[C@@H](CCCCNC(=O)OC(C)(C)C)C(=O)N[C@@H](CC(C)C)C(=O)N[C@@H](CCCCNC(=O)OC(C)(C)C)C(=O)N[C@@](C)(CCCC=C)C(=O)N[C@@H](CC(C)C)C(=O)N[C@H](C(N)=O)C(C)C,"ring closure, overall yield",[2]; [3],62%
C=CCCCCCC[C@@](C)(NC(=O)[C@@H](NC(=O)OCC1c2ccccc2-c2ccccc21)C(C)C)C(=O)N[C@@H](CCCNC(=N)NS(=O)(=O)c1c(C)c(C)c2c(c1C)CC(C)(C)O2)C(=O)N[C@@H](Cc1ccccc1)C(=O)N[C@@H](CCCCNC(=O)OC(C)(C)C)C(=O)N[C@@H](CCCCNC(=O)OC(C)(C)C)C(=O)N[C@@H](Cc1ccccc1)C(=O)N[C@@H](Cc1ccccc1)C(=O)N[C@@](C)(CCCC=C)C(=O)N[C@@H](CCCCNC(=O)OC(C)(C)C)C(=O)N[C@@H](CC(C)C)C(=O)N[C@@H](CCCCNC(=O)OC(C)(C)C)C(=O)N[C@@H](CCCCNC(=O)OC(C)(C)C)C(=O)N[C@@H](CC(C)C)C(=O)N[C@H](C(N)=O)C(C)C,"ring closure, overall yield",[2]; [3],62%
